Assays:
[1] = target: T1, cloned human P2Y1 receptors (Homo sapiens (Human), UniProt P47900); assay: Binding Assay A - membrane binding assay, [33P] 2MeS-ADP (WGA FlashPlate); details: values marked * in Table 1; 0.5 nM [33P] 2MeS-ADP, Cheng-Prusoff; read-out: P2Y1 Ki (nM) using binding assay A
Text: A membrane binding assay was used to identify inhibitors of [^33P] […] The cDNA clone for human P2Y1 was obtained from Incyte Pharmaceuticals and its sequence confirmed by established techniques (for a compendium of techniques used see Ausubel, F. et al., Current Protocols in Molecular Biology, John Wiley and Sons, NY, NY (1995)). The essential coding sequences were subcloned into pCDNA 3.1 (Invitrogen) to produce a P2Y1 expression construct. This construct was then transfected into the human embryonic kidney cell line HEK-293 and stable transfectants selected in GENETICIN® (G418 sulfate; Life Technologies). […] Membranes were prepared by growing HEK293 #49 in 150 mm dishes in DMEM/10% FBS in the presence of 1 mg/ml G418 until cells were 80-90% confluent. Plates were then washed with cold (4° C.) D-PBS twice and cells harvested by scraping into 10 mL D-PBS. Cells were pelleted by centrifugation (1,000 g, 10 min, 4° C.) and the resulting pellet resuspended in Lysis Buffer (10 mM Tris (7.4), 5 mM MgCl2 containing Complete protease inhibitor cocktail (Roche Cat #1873580) as recommended by the manufacturer). The suspension was then homogenized in a Dounce homogenizer (10-15 strokes; B pestle, on ice) and the homogenate spun at 1,000 g, 4° C., 5 min to pellet large debris. The supernatant was centrifuged at 150,000 g, 4° C., for 1 hour and the resulting membrane pellet resuspended in 0.5-1 mL of Buffer B (15 mM HEPES (7.4), 145 mM NaCl, 0.1 mM MgCl2, 5 mM EDTA, 5 mM KCl) and stored at −70° C. until used.
Binding reactions were performed in WGA FLASHPLATE®s (PerkinElmer Life Sciences, Cat # SMP105A) in a volume of 200 μL containing ˜45 fmol of P2Y1 receptor (5 μg of total protein), 0.5 nM [^33P] […] Reactions were allowed to proceed to completion at room temperature for 1 hour and then the aqueous solution aspirated. Plates were sealed and the residual [^33P] bound to the plate determined by scintillation counting.

[2] = test system: human platelet rich plasma (PRP); assay: ADP induced platelet aggregation assay; details: Homo sapiens, Platelet, 5 min, read-out: PA IC50 (μM) @ 10 μM ADP, human PRP, 10 μM ADP, AUC at 5 minute
[3] = target: T1, cloned human P2Y1 receptors; assay: Binding Assay B - Scintillation Proximity Assay (SPA) for P2Y1 binding, [33P] 2MeS-ADP; details: read-out: P2Y1 Ki (nM) using binding assay B
Protocol: Binding Assay B—Scintillation Proximity Assay (SPA) for P2Y1 Binding
A SPA membrane binding assay was used to identify inhibitors of [^33P] […] Reactions were allowed to proceed to completion at room temperature for 1 hour followed by centrifugation of the plate for 5 min. About 40 μL of the aqueous solution was aspirated. Plates were sealed and the [^33P]

[4] = SPA, 0.3 nM [33P] 2MeS-ADP, Cheng-Prusoff

T1 sequence (P47900 whole entry): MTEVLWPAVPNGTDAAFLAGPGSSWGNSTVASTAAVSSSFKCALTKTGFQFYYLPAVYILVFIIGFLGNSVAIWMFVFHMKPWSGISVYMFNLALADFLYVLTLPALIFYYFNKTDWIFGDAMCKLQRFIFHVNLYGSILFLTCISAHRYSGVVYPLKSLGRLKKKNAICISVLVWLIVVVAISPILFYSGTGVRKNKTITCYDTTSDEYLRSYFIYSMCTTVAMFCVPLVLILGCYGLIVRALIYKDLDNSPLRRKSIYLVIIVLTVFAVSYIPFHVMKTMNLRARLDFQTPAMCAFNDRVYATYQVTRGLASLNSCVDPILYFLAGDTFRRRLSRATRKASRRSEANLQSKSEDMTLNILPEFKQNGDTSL

Row | Compound | Ki [1] [nM] | IC50 [2] [µM] | Ki [3, 4] [nM] | Ki [3] [nM]
1 | CCC1(CC)CN(c2ccccc2NC(=O)Nc2ccc(C3CCCN3CC(C)C)cc2)c2c1ccc(F)c2O (centres unmarked) [Example 36, 1-(2-(3,3-Diethyl-6-fluoro-7-hydroxyindolin-1-yl)phenyl)-3-(4-(1-isobutylpyrrolidin-2-yl)phenyl)urea] | 5.7 | 0.21 | – | –
2 | CCC1(CC)CN(c2ccccc2NC(=O)Nc2nc(C(C)C)ns2)c2c(O)ccc(Cl)c21 [Example 48, 1-(2-(4-Chloro-3,3-diethyl-7-hydroxyindolin-1-yl)phenyl)-3-(3-isopropyl-1,2,4-thiadiazol-5-yl)urea] | 7 | 0.48 | – | –
3 | CCC1(CC)CN(c2ccccc2NC(=O)Nc2nc3ccc(F)cc3s2)c2c(O)ccc(Cl)c21 [Example 49, 1-(2-(4-Chloro-3,3-diethyl-7-hydroxyindolin-1-yl)phenyl)-3-(6-fluorobenzo[d]thiazol-2-yl)urea] | 6.6 | 0.18 | – | –
4 | CC1(C)CN(c2ccccc2NC(=O)Nc2ccc(OC(F)(F)F)cc2)c2c(O)ccc(-c3ccc(F)cn3)c21 [Example 123, 1-(2-(4-(5-Fluoropyridin-2-yl)-7-hydroxy-3,3-dimethylindolin-1-yl)phenyl)-3-(4-(trifluoromethoxy)phenyl)urea] | 4.5 | 0.43 | – | –
5 | CC1(C)CN(c2ccccc2NC(=O)Nc2ccc(OC(F)(F)F)cc2)c2c(O)ccc(-c3nccs3)c21 [Example 124, 1-(2-(7-Hydroxy-3,3-dimethyl-4-(thiazol-2-yl)indolin-1-yl)phenyl)-3-(4-(trifluoromethoxy)phenyl)urea] | 3.4 | 0.82 | – | –
6 | CC1(C)CN(c2ccccc2NC(=O)Nc2ccc(OC(F)(F)F)cc2)c2c(O)ccc(-c3ccc(C(F)(F)F)cn3)c21 [Example 125, 1-(2-(7-Hydroxy-3,3-dimethyl-4-(5-(trifluoromethyl)pyridin-2-yl)indolin-1-yl)phenyl)-3-(4-(trifluoromethoxy)phenyl)urea] | 4.8 | 0.15 | – | –
7 | CC(C)c1cnc(-c2ccc(O)c3c2C(C)(C)CN3c2ccccc2NC(=O)Nc2ccc(OC(F)(F)F)cc2)nc1 [Example 126, 1-(2-(7-Hydroxy-4-(5-isopropylpyrimidin-2-yl)-3,3-dimethylindolin-1-yl)phenyl)-3-(4-(trifluoromethoxy)phenyl)urea] | 4.1 | 0.3 | – | –
8 | CC(C)c1nc(-c2ccc(O)c3c2C(C)(C)CN3c2ccccc2NC(=O)Nc2ccc(OC(F)(F)F)cc2)cs1 [Example 127, 1-(2-(7-Hydroxy-4-(2-isopropylthiazol-4-yl)-3,3-dimethylindolin-1-yl)phenyl)-3-(4-(trifluoromethoxy)phenyl)urea] | 4.7 | 0.28 | – | –
9 | CC1(C)CN(c2ccccc2NC(=O)Nc2nc3ccc(F)cc3s2)c2c(O)ccc(-c3nc4cc(F)ccc4s3)c21 [Example 171, 1-(6-Fluorobenzo[d]thiazol-2-yl)-3-(2-(4-(5-fluorobenzo[d]thiazol-2-yl)-7-hydroxy-3,3-dimethylindolin-1-yl)phenyl)urea] | 8.7 | 0.36 | – | –
10 | CC1(C)CN(c2ccccc2NC(=O)Nc2nc3ccc(Cl)nc3s2)c2c(O)ccc(-c3nc4cc(F)ccc4s3)c21 [Example 173, 1-(5-Chlorothiazolo[5,4-b]pyridin-2-yl)-3-(2-(4-(5-fluorobenzo[d]thiazol-2-yl)-7-hydroxy-3,3-dimethylindolin-1-yl)phenyl)urea] | 20.7 | 0.5 | – | –
11 | CC1(C)CN(c2ccccc2NC(=O)Nc2ccc(OC(F)(F)F)cc2)c2c(O)ccc(-c3nc4ccc(F)cc4s3)c21 [Example 174, 1-(2-(4-(6-Fluorobenzo[d]thiazol-2-yl)-7-hydroxy-3,3-dimethylindolin-1-yl)phenyl)-3-(4-(trifluoromethoxy)phenyl)urea] | 6.3 | 0.32 | – | –
12 | CC1(C)CN(c2ccccc2NC(=O)Nc2nc3ccc(F)cc3s2)c2c(O)ccc(-c3nc4ccc(F)cc4s3)c21 [Example 175, 1-(6-Fluorobenzo[d]thiazol-2-yl)-3-(2-(4-(6-fluorobenzo[d]thiazol-2-yl)-7-hydroxy-3,3-dimethylindolin-1-yl)phenyl)urea] | 17.6 | 0.35 | – | –
13 | CC(C)n1nc(C(F)(F)F)cc1-c1c(F)cc(O)c2c1C(C)(C)CN2c1ccccc1NC(=O)Nc1nc2ccc(Cl)cc2s1 [Example 268, 1-(6-Chlorobenzo[d]thiazol-2-yl)-3-(2-(5-fluoro-7-hydroxy-4-(1-isopropyl-3-(trifluoromethyl)-1H-pyrazol-5-yl)-3,3-dimethylindolin-1-yl)phenyl)urea] | – | 0.45 | 18.1 | –
14 | CC1(C)CN(c2ccccc2NC(=O)Nc2csc(Cl)n2)c2c(O)cc(F)c(-c3cc(C(F)(F)F)no3)c21 [Example 269, 1-(2-Chlorothiazol-4-yl)-3-(2-(5-fluoro-7-hydroxy-3,3-dimethyl 4-(3-(trifluoromethyl)isoxazol-5-yl)indolin-1-yl)phenyl)urea] | – | 0.39 | 1.2 | –
15 | CC(C)(C)c1nc(-c2c(F)cc(O)c3c2C(C)(C)CN3c2ccccc2NC(=O)Nc2nc3ccc(Cl)cc3s2)co1 [Example 270, 1-(2-(4-(2-(tert-Butyl)oxazol-4-yl)-5-fluoro-7-hydroxy-3,3-dimethylindolin-1-yl)phenyl)-3-(6-chlorobenzo[d]thiazol-2-yl)urea] | – | 0.43 | 17.3 | –
16 | CC(C)n1nc(-c2c(F)cc(O)c3c2C(C)(C)CN3c2ccccc2NC(=O)Nc2ccc(OC(F)(F)F)cc2)cc1C(F)(F)F [Example 271, 1-(2-(5-Fluoro-7-hydroxy-4-(1-isopropyl-5-(trifluoromethyl)-1H-pyrazol-3-yl)-3,3-dimethylindolin-1-yl)phenyl)-3-(4-(trifluoromethoxy)phenyl)urea] | – | 0.07 | 12.4 | –
17 | CC(C)n1nc(-c2c(F)cc(O)c3c2C(C)(C)CN3c2ccccc2NC(=O)Nc2csc(C(F)(F)F)n2)cc1C(F)(F)F [Example 272, 1-(2-(5-Fluoro-7-hydroxy-4-(1-isopropyl-5-(trifluoromethyl)-1H-pyrazol-3-yl)-3,3-dimethylindolin-1-yl)phenyl)-3-(2-(trifluoromethyl)thiazol-4-yl)urea] | – | 0.18 | 16.7 | –
18 | CC(C)n1nc(-c2c(F)cc(O)c3c2C(C)(C)CN3c2ccccc2NC(=O)Nc2csc(Cl)n2)cc1C(F)(F)F [Example 273, 1-(2-Chlorothiazol-4-yl)-3-(2-(5-fluoro-7-hydroxy-4-(1-isopropyl-5-(trifluoromethyl)-1H-pyrazol-3-yl)-3,3-dimethylindolin-1-yl)phenyl)urea] | – | 0.05 | 9.4 | –
19 | Cc1nc(-c2c(F)cc(O)c3c2C(C)(C)CN3c2ccccc2NC(=O)Nc2ccc(OC(F)(F)F)cc2)co1 [Example 274, 1-(2-(5-Fluoro-7-hydroxy-3,3-dimethyl-4-(2-methyloxazol-4-yl)indolin-1-yl)phenyl)-3-(4-(trifluoromethoxy)phenyl)urea] | – | 3.39 | 7.4 | –
20 | CC1(C)CN(c2ccccc2NC(=O)Nc2ccc(OC(F)(F)F)cc2)c2c(O)cc(F)c(-c3noc(C(F)(F)F)n3)c21 [Example 276, 1-(2-(5-Fluoro-7-hydroxy-3,3-dimethyl-4-(5-(trifluoromethyl)-1,2,4-oxadiazol-3-yl)indolin-1-yl)phenyl)-3-(4-(trifluoromethoxy)phenyl)urea] | – | 0.64 | 48.7 | –
21 | CC1(C)CN(c2ccccc2NC(=O)Nc2nc3ccc(F)cc3s2)c2c(O)cc(F)c(-c3noc(C(F)(F)F)n3)c21 [Example 277, 1-(2-(5-Fluoro-7-hydroxy-3,3-dimethyl-4-(5-(trifluoromethyl)-1,2,4-oxadiazol-3-yl)indolin-1-yl)phenyl)-3-(6-fluorobenzo[d]thiazol-2-yl)urea] | – | 0.26 | 54.9 | –
22 | CC(C)(C)c1nc(-c2c(F)cc(O)c3c2C(C)(C)CN3c2ccccc2NC(=O)Nc2ccc(OC(F)(F)F)cc2)no1 [Example 278, 1-(2-(4-(5-(tert-Butyl)-1,2,4-oxadiazol-3-yl)-5-fluoro-7-hydroxy-3,3-dimethylindolin-1-yl)phenyl)-3-(4-(trifluoromethoxy)phenyl)urea] | – | 0.21 | – | 8.1
